Laboratory results reported in PubChem BioAssay AID588372 (Southern Research Specialized Biocontainment Screening …, 2011).
Values joined by “and” are separate entries in the source; they are usually repeats but may differ in a detail not shown here. Equal entries are not always repeated. Results filed as inconclusive are left out. Active and inactive are the calls of the source. How the calls were made is not given here.

Tested on: West Nile virus infected cells, antiviral inhibition
Test: antiviral activity against West Nile virus in cells, dose response, cell-based, EC_2 (AID 588372)
Details: not given
`O=C(CSc1nc2ccccc2c(=O)n1-c1ccc(F)c(Cl)c1)Nc1ccc2c(c1)CCC2` gave an IC50 of 9.05 µM.
Compound `O=C(CSc1nc2ccccc2c(=O)n1-c1cc(Cl)cc(Cl)c1)Nc1ccc2c(c1)CCC2` has an IC50 of 2.1 µM.
For `O=C(CSc1nc2ccccc2c(=O)n1-c1ccccc1)Nc1ccc2c(c1)CCC2`, the IC50 was 6.51 µM and 33.3 µM.
With `O=C(CSc1nc2ccccc2c(=O)n1-c1cc(F)c(F)c(F)c1)Nc1ccc2c(c1)CCC2` the IC50 was 5.27 µM.
Compound `O=C(CSc1nc2ccccc2c(=O)n1-c1ccc(F)c(F)c1)Nc1ccc2c(c1)CCC2` has an IC50 of 5.72 µM.

Tested on: not listed separately
Test: as above
Details: West Nile virus infected cells, antiviral inhibition; at 25 µM (top of the series)
In the case of `Cn1c(NC(=O)CSc2nc3ccccc3c(=O)n2-c2ccccc2)nc2ccccc21`, the inhibition is reported as -2.29% (inactive).

Same assay, conditions: West Nile virus infected cells, antiviral inhibition; at 50 µM (top of the series)
In the case of `O=C(CSc1nc2ccccc2c(=O)n1-c1cc(F)c(F)c(F)c1)NC1CCCc2ccccc21` (configuration not stated), the inhibition is reported as -0.6% (inactive).
With `O=C(CSc1nc2ccccc2c(=O)n1-c1cc(Cl)cc(Cl)c1)Nc1ccc2c(c1)OCO2` the inhibition was -2.43% (inactive).
With `Cn1c(NC(=O)CSc2nc3ccccc3c(=O)n2-c2ccc(Cl)c(Cl)c2)nc2ccccc21` the inhibition was -1.28% (inactive).
In the case of `O=C(CSc1nc2ccccc2c(=O)n1-c1ccc(Cl)c(Cl)c1)NC1CCc2ccccc21` (configuration not stated), the inhibition is reported as 5.24% (inactive).
With `O=C(CSc1nc2ccccc2c(=O)n1-c1ccc(Cl)c(Cl)c1)Nc1nc2ccc([N+](=O)[O-])cc2s1` the inhibition was -1.43% (inactive).
With `O=C(CSc1nc2ccccc2c(=O)n1-c1cc(F)c(F)c(F)c1)NC1Cc2ccccc2C1` the inhibition was 0.07% (inactive).
With `O=C(CSc1nc2ccccc2c(=O)n1-c1cc(Cl)cc(Cl)c1)Nc1cccc2c1CCC2` the inhibition was 1.26% (inactive).
In the case of `O=C(CSc1nc2ccccc2c(=O)n1-c1ccc(Cl)c(Cl)c1)NC1Cc2ccccc2C1`, the inhibition is reported as -0.66% (inactive).
For `O=C(CSc1nc2ccccc2c(=O)n1-c1cc(Cl)cc(Cl)c1)NC1CCCc2ccccc21` (configuration not stated), the inhibition was 1.62% (inactive).
For `Cc1nc2cc(NC(=O)CSc3nc4ccccc4c(=O)n3-c3ccc(Cl)c(Cl)c3)ccc2s1`, the inhibition was 0.29% (inactive).
For `O=C(CSc1nc2ccccc2c(=O)n1-c1ccc(Cl)c(Cl)c1)NC1CCCc2ccccc21` (configuration not stated), the inhibition was 1.77% (inactive).
With `O=C(CSc1nc2ccccc2c(=O)n1-c1ccc(F)c(F)c1)Nc1nccs1` the inhibition was 0% (inactive).
With `O=C(CSc1nc2ccccc2c(=O)n1-c1cc(F)c(F)c(F)c1)Nc1cccc2c1CCC2` the inhibition was 5.49% (inactive).

Same assay, conditions: West Nile virus infected cells, antiviral inhibition; at 100 µM (top of the series)
For `O=C(CSc1nc2ccccc2c(=O)n1-c1ccc(F)c(F)c1)Nc1ccc2c(c1)OCO2`, the inhibition was -1.66% (inactive).
With `O=C(CSc1nc2ccccc2c(=O)n1-c1ccc(F)c(Cl)c1)Nc1nccs1` the inhibition was 7.09% (inactive).
For `O=C(CSc1nc2ccccc2c(=O)n1-c1ccc(F)c(Cl)c1)Nc1cccc2ccccc12`, the inhibition was -0.86% (inactive).
With `O=C(CCCCSc1nc2ccccc2c(=O)n1-c1cc(F)c(F)c(F)c1)Nc1ccc2c(c1)CCC2` the inhibition was 11.5% (inactive).
In the case of `O=C(CSc1nc2ccccc2c(=O)n1-c1ccc(F)c(F)c1)NC1CCCc2ccccc21` (configuration not stated), the inhibition is reported as -0.29% (inactive).
With `O=C(CSc1nc2ccccc2c(=O)n1-c1ccc(F)c(Cl)c1)NC1CCCc2ccccc21` (configuration not stated) the inhibition was -0.04% (inactive).
For `O=C(CSc1nc2ccccc2c(=O)n1-c1cc(F)c(F)c(F)c1)Nc1ccc2c(c1)OCO2`, the inhibition was 3.29% (inactive).
In the case of `O=C(CSc1nc2ccccc2c(=O)n1-c1cc(F)c(F)c(F)c1)Nc1nccs1`, the inhibition is reported as 6.14% (inactive).
With `O=C(CSc1nc2ccccc2c(=O)n1-c1ccc(F)c(F)c1)Nc1cccc2ccccc12` the inhibition was -1.02% (inactive).
For `O=C(CSc1nc2ccccc2c(=O)n1-c1ccc(Cl)c(Cl)c1)Nc1cccc(-c2ccccc2)c1`, the inhibition was -1.24% (inactive).
For `Cc1csc(NC(=O)CSc2nc3ccccc3c(=O)n2-c2ccc(Cl)c(Cl)c2)n1`, the inhibition was -0.04% (inactive).
In the case of `O=C(CCCSc1nc2ccccc2c(=O)n1-c1ccc(Cl)c(Cl)c1)Nc1ccc2c(c1)CCC2`, the inhibition is reported as -0.7% (inactive).
For `O=C(CSc1nc2ccccc2c(=O)n1-c1ccc(Cl)c(Cl)c1)Nc1nc2cc(Cl)ccc2o1`, the inhibition was 6.36% (inactive).
For `O=C(CCCCSc1nc2ccccc2c(=O)n1-c1cc(Cl)cc(Cl)c1)Nc1ccc2c(c1)CCC2`, the inhibition was 0.66% (inactive).
In the case of `O=C(CCSc1nc2ccccc2c(=O)n1-c1ccc(F)c(Cl)c1)Nc1ccc2c(c1)CCC2`, the inhibition is reported as -1.01% (inactive).
For `O=C(CSc1nc2ccccc2c(=O)n1-c1ccc(F)c(Cl)c1)NC1CCc2ccccc21` (configuration not stated), the inhibition was 1.01% (inactive).
In the case of `O=C(CSc1nc2ccccc2c(=O)n1-c1ccc(Cl)c(Cl)c1)N1CCCCCC1`, the inhibition is reported as 1.13% (inactive).
With `O=C(CSc1nc2ccccc2c(=O)n1-c1ccc(F)c(F)c1)NC1Cc2ccccc2C1` the inhibition was -0.73% (inactive).
For `O=C(CSc1nc2ccccc2c(=O)n1-c1ccc(F)c(Cl)c1)NC1Cc2ccccc2C1`, the inhibition was -1.39% (inactive).
In the case of `O=C(CSc1nc2ccccc2c(=O)n1-c1ccc(F)c(F)c1)Nc1cccc2c1CCC2`, the inhibition is reported as 0% (inactive).
For `O=C(CCSc1nc2ccccc2c(=O)n1-c1ccc(F)c(F)c1)Nc1ccc2c(c1)CCC2`, the inhibition was -1.31% (inactive).
For `O=C(CCCCSc1nc2ccccc2c(=O)n1-c1ccc(F)c(F)c1)Nc1ccc2c(c1)CCC2`, the inhibition was 0.53% (inactive).
For `O=C(COc1nc2ccccc2c(=O)n1-c1ccccc1)Nc1ccc2c(c1)CCC2`, the inhibition was 5.92% (inactive).
With `O=C(CCSc1nc2ccccc2c(=O)n1-c1cc(Cl)cc(Cl)c1)Nc1ccc2c(c1)CCC2` the inhibition was 1.02% (inactive).
For `O=C(CCCCSc1nc2ccccc2c(=O)n1-c1ccc(F)c(Cl)c1)Nc1ccc2c(c1)CCC2`, the inhibition was 0.07% (inactive).
In the case of `O=C(CCCCSc1nc2ccccc2c(=O)n1-c1ccc(Cl)c(Cl)c1)Nc1ccc2c(c1)CCC2`, the inhibition is reported as 3.07% (inactive).
With `O=C(CSc1nc2ccccc2c(=O)n1-c1cc(F)c(F)c(F)c1)Nc1cccc2ccccc12` the inhibition was -1.52% (inactive).
In the case of `O=C(CSc1nc2ccccc2c(=O)n1-c1ccc(F)c(Cl)c1)Nc1ccc2c(c1)OCO2`, the inhibition is reported as -0.94% (inactive).
In the case of `O=C(CSc1nc2ccccc2c(=O)n1-c1ccc(Cl)c(Cl)c1)Nc1nc(-c2ccccc2)cs1`, the inhibition is reported as 0.46% (inactive).
For `Cc1cnc(NC(=O)CSc2nc3ccccc3c(=O)n2-c2ccc(Cl)c(Cl)c2)s1`, the inhibition was -0.85% (inactive).
For `O=C(CSc1nc2ccccc2c(=O)n1-c1ccc(Cl)c(Cl)c1)Nc1ncc([N+](=O)[O-])s1`, the inhibition was 0.32% (inactive).
With `O=C(CSc1nc2ccccc2c(=O)n1-c1ccc(F)c(Cl)c1)Nc1cccc2c1CCC2` the inhibition was -0.11% (inactive).
With `O=C(CSc1nc2ccccc2c(=O)n1-c1ccc(Cl)c(Cl)c1)Nc1ccc2scnc2c1` the inhibition was 0.04% (inactive).
